Data taken from patent US9364477B2, “Mutant ROS expression in human cancer” (Cell Signaling Technology, Inc., priority 2009, dated 2016).

Tests used:
[1] = system: BaF3 expressing FIG-ROS(S); experiment: MTS cell growth assay, BaF3 expressing FIG-ROS(S); format: cell-based, Murine
Method: (§1) BaF3 cells were transduced with retrovirus encoding FIG-ROS(S), FIG-ROS(L), or FLT-31TD (the Internal tandem duplication mutation in FLT3 causes AML leukemia), and selected for IL3 independent growth. Karpas 299 cells, which express NPM-ALK, was used as a positive control.
(§2) After 72 hours, 20 ul of the CellTiter 96 Aqueous One Solution Reagent was added into each well of a 96 well assay plate (flat bottom), and then 100 ul of cells grown with or without treatment. Media-only wells were used as controls. The 96 well plate was incubated for 1-4 hours at 37° C., and then viable cells were counted by reading the absorbance at 490 nm using a 96 well plate reader.

[2] = system: BaF3 expressing FIG-ROS(L); experiment: MTS cell growth assay, BaF3 expressing FIG-ROS(L); format: cell-based, Murine; conditions: 0-1000 nM TAE-684, 72 hours
Method: as §1, §2

BaF3 expressing FLT3ITD = experiment: MTS cell growth assay, BaF3 transduced with FLT3/ITD; format: cell-based, Murine; conditions: 0-1000 nM TAE-684, 72 hours
Method: as §1, §2

Karpas 299 cells [3] = experiment: MTS cell growth assay, Karpas 299 cells (NPM-ALK); format: cell-based; conditions: 0-1000 nM TAE-684, 72 hours
Method: as §1, §2

[4] = system: BaF3 cells expressing FIG-ROS(S); experiment: Cleaved caspase-3 flow cytometry apoptosis assay, BaF3 FIG-ROS(S); format: cell-based, Murine; conditions: presence of TAE-684
Source text: (§3) The mechanism of death of the BaF3 and Karpas 299 cells was next reviewed by measuring the percentage of cleaved-caspase 3 positive cells by flow cytometry assay using cleaved caspase-3 as a marker for apoptosis.

[5] = system: BaF3 cells expressing FIG-ROS(L); experiment: Cleaved caspase-3 flow cytometry apoptosis assay, BaF3 FIG-ROS(L); format: cell-based, Murine; conditions: presence of TAE-684
Source text: as §3

Karpas 299 cells [6] = experiment: Cleaved caspase-3 flow cytometry apoptosis assay, Karpas 299; format: cell-based; conditions: presence of TAE-684
Source text: as §3

FIG-ROS(S) = FIG-ROS(S) (Homo sapiens, UniProt P08922); experiment: Western blotting of phosphorylation, BaF3 FIG-ROS(S); format: cell-based; conditions: 0, 10, 50, or 100 nM TAE-684 for three hours
FIG-ROS(L) = FIG-ROS(L) (Homo sapiens, UniProt P08922); experiment: Western blotting of phosphorylation, BaF3 FIG-ROS(L); format: cell-based; conditions: 0, 10, 50, or 100 nM TAE-684 for three hours
[7] = system: BaF3 cells transduced with the FLT-31TD retrovirus; experiment: Western blotting of phosphorylation, BaF3 FLT-31TD; format: cell-based, Murine; conditions: 0, 10, 50, or 100 nM TAE-684 for three hours
[8] = system: Ros (D4D6) XP™ Rabbit mAb; conditions: HCC78 cells; antibody 0.19 μg/ml; peptide 1.9 ug/ml
Method: Briefly, paraffin embedded HCC78 cell pellets were deparaffinized and rehydrated through three changes of xylene and graded ethanol, then rinsed in diH2O. Slides were subjected to antigen retrieval in 1.0 mM EDTA, pH 8.0 in the microwave. After blocking for 1 hour in TBST/5% goat serum, slides were incubated overnight at 4° C. with Ros (D4D6) XP™ Rabbit mAb at 0.19 μg/ml in the absence of peptide or in the presence of one of 13 different ROS peptides at 1.9 ug/ml.
After washing, detection was performed with SignalStain® Boost IHC Detection Reagent (HRP, Rabbit) #8114 and NovaRed (Vector Laboratories, Burlingame, Calif.).

| Compound | cellular growth response in the presence of TAE-684 ([1]; BaF3 FIG-ROS(S), 0-1000 nM TAE-684, 72 hours, MTS) | susceptibility of FIG-ROS(S) to TAE-684 compared with FIG-ROS(L) ([1]; BaF3 cells, MTS assay) | cellular growth response in the presence of TAE-684 [2] | cellular growth response in the presence of TAE-684 (BaF3 expressing FLT3ITD) | cellular growth response in the presence of TAE-684 (Karpas 299 cells [3]) | death by apoptosis (cleaved-caspase 3 positive cells) [4] | death by apoptosis (cleaved-caspase 3 positive cells) [5] | cell cycle arrest (Karpas 299 cells [6]) | death by apoptosis (cleaved-caspase 3 positive cells) (Karpas 299 cells [6]) | phosphorylation of FIG-ROS(S) (FIG-ROS(S)) | phosphorylation of STAT3, AKT, and ERK, and Shp2 (downstream signaling molecules) (FIG-ROS(S)) | phosphorylation of FIG-ROS(L) (FIG-ROS(L)) | phosphorylation of STAT3, AKT, and ERK, and Shp2 (downstream signaling molecules) (FIG-ROS(L)) | phosphorylation of STAT3, AKT, and ERK, and Shp2 [7] | competition of ROS antibody binding off the IHC slide [8] |
| --- | --- | --- | --- | --- | --- | --- | --- | --- | --- | --- | --- | --- | --- | --- | --- |
| COc1cc(N2CCC(N3CCN(C)CC3)CC2)ccc1Nc1ncc(Cl)c(Nc2ccccc2S(=O)(=O)C(C)C)n1 [TAE-684] | stopped growing | less susceptible | stopped growing | not susceptible | stopped growing | die by apoptosis | die by apoptosis | underwent cell cycle arrest | did not die by apoptosis | inhibited | inhibited | inhibited | inhibited | not affected |  |
| (biotin)AGAGVAYCPSGKPE [peptide 9] |  |  |  |  |  |  |  |  |  |  |  |  |  |  | able to compete |
